Source: US5306482A, “Radiopharmaceutical bacteriostats” (priority 1992, dated 1994)

Assays:
[1] = Radiolabelling test of benzalkonium chloride (BAC) with sodium pertechnetate 99mTc in the presence of PABA (ITLC-SG radiochromatography, physical appearance); assay type: physicochemical; conditions: for effect on PABA / its anti-oxidant properties / physical appearance (precipitate): MDP/PABA kit
Procedure: A preliminary radiolabelling test of benzalkonium chloride (BAC) with sodium pertechnetate ^99m Tc in the presence of para-aminobenzoic acid (PABA) was conducted.
(§1) Three vials with a total volume of 10 ml from a recently manufactured methylene diphosphonic acid (MDP) kit containing PABA were treated with various amounts of benzalkonium chloride, i.e., 1, 5 and 10 mg which corresponded to 0.01, 0.05 and 0.10% solutions. Radiochromatography was performed using ITLC-SG strips developed in acetone and saline. The vials were tested at 5 and 24 hours post reconstitution. At these two periods, less than 1% free pertechnetate and reduced hydrolyzed technetium was found in the three vials.

[2] = MDP/PABA/BAC formulation - radiochemical stress test; assay type: physicochemical
Procedure: Four batches of MDP/PABA/BAC kits were prepared, lyophilized, and tested. The formulations were as follows: […]
One vial from each batch was reconstituted with 500 mCi ^99m Tc-sodium pertechnetate in 10 mL. Twenty minutes later, 7 mL were removed. The vials were left at room temperature for the duration of the test.

[3] = tested on: concentrated dust culture; assay: Bacteriostatic effect of BAC in MDP/PABA - viability check; assay type: cell-based, wild strains of bacteria and fungi
Procedure: (§2) A test of the bacteriostatic effects of various concentrations of benzalkonium chloride in MDP/PABA was conducted. A total of fourteen vials, two each of the six concentrations of benzalkonium chloride in MDP/PABA and two control MDP/PABA vials were utilized. A dilute source of microorganisms was prepared by adding 3 drops of a "dust culture" (which was a mixed culture derived from dust and comprised a variety of wild strains of bacteria and fungi typical to ambient conditions) to 1 liter of sterile water for injection. After sufficient agitation, three drops of the dilute culture were added to one vial of each concentration, including one zero vial, and all fourteen vials were left to incubate overnight (approx. 18 hours) at room temperature. One tube (15 mi) of Fluid Thioglycollate medium and one tube (15 mi) of Tryptic Soy medium was inoculated with 1 milliliter from each of the fourteen incubated vials. Each tube was incubated for fourteen days.

[4] = MDP/PABA compared with MDP/PABA/BAC - biodistribution; assay type: in vivo; conditions: rat
Procedure: A lyophilized batch of MDP/PABA formulated with benzalkonium chloride (MDP/PABA/BAC) was prepared and tested. The bacterial preservative was added prior to freeze-drying. No special precaution was taken in order to avoid excessive air oxidation of the tin.
A side by side study of biodistribution of the two formulations with and without benzalkonium chloride was conducted.
Each lyophilized vial contained 10 mg of MDP, 1 mg of stannous chloride dehydrate, 2 mg of PABA and 50 μg of benzalkonium chloride (BAC). The pH was adjusted to 7.0. […] The haze was filtered off to give a clear solution.
The dosage was 83 μg MDP per rat (130-150 g). Tissue distribution was monitored at 20 minutes, 1 hour, 2 hours, 6 hours and 24 hours post-reconstitution (PR).

[5] = tested on: bacterial, fungal and mold growth; assay: Microbiological test according to USP XXI - overall; assay type: cell-based; conditions: 10 or 25 μg BAC in a volume of 10 ml
Procedure: (§3) A microbiological test was conducted according to USP XXI.

[6] = Accelerated stability study of MDP/PABA/BAC; assay type: physicochemical
Procedure: The formulations were examined in an accelerated stability study which was conducted according to FDA guidelines.

[7] = MDP/PABA/BAC radiochemical stress test (Example 3); assay type: physicochemical; conditions: before filtration; pH 7.0; 50 μg BAC
Procedure: A radiochemical "stress test" was also performed on three vials of MDP/PABA/BAC. A "non-stressed" vial was tested simultaneously as a control.
Four vials of the lyophilized product were labelled with ^99m Tc-sodium pertechnetate. Each received 500 mCi in 10 mL of technetium from a recent elution. For the first three vials, twenty minutes after reconstitution, 7 mL were removed. The fourth vial remained untouched. The vials were kept at room temperature throughout the length of the experiment.
The radiochemical tests were performed at 0.5, 6.0 and 24 hours post reconstitution.

[8] = tested on: dust culture; assay: Bacteriostatic effect of BAC in MDP/PABA - sterility test; assay type: cell-based, wild strains of bacteria and fungi
Procedure: as §2

[9] = tested on: bacterial, fungal and mold growth; assay: Microbiological test according to USP XXI (Example 15) - overall; assay type: cell-based
Procedure: as §3
Radiopharmaceutical kits employing MDP (methylene diphosphonic acid), IDP(iminodiphosphonic acid) or DTPA(diethylene-triamine-pentacetic acid) and benzylalkonium chloride (BAC), and optionally polymyxin sulfate B (PSB) were prepared, reconstituted and inoculated utilizing standard procedures.

[10] = MDP/PABA formulated with benzalkonium chloride - stress test (radiochromatography); assay type: physicochemical; conditions: 10 mg BAC added with 500 mCi pertechnetate 99mTc
Procedure: Four vials of MDP/PABA were reconstituted with 500 mCi of pertechnetate ^99m Tc in 9 mL of normal saline. Immediately to two vials were added 1 mg/1 mL (0.01%) of benzalkonium chloride solution. Similarly, to the remaining two vials we added 10 mg/1 mL (0.1%).

[11] = IDP/PABA/BAC and IDP/PABA/BAC/PSB stress test (radiochromatography); assay type: physicochemical; conditions: 500 mCi pertechnetate 99mTc
Procedure: as §1
(§4) Two vials of IDP/PABA/BAC were reconstituted with 500 mCi of pertechnetate ^99m Tc in 10 mL of normal saline and 7 ml of the solution was removed 20 minutes later, The solutions were kept at room temperature for the length of the test. The radiochromatography tests as described in Example 1 were performed at less than 30 minutes and at 7 and 24 hours post reconstitution (PR):
as §4, with “of IDP/PABA/BAC/PSB” for “of IDP/PABA/BAC”, “minutes later.” for “minutes later,”, “30 min” for “30 minutes”, “(PR): […]” for “(PR):”

[12] = MDP/PABA kit vials with 1, 5 and 10 mg BAC (0.01, 0.05, 0.10%), 5 and 24 hours post reconstitution

## CC(C)(C)CC(C)(C)c1ccc(OCCOCC[N+](C)(C)Cc2ccccc2)cc1 [benzethonium chloride]
[1]
  effect on PABA / its anti-oxidant properties: did not interfere with the anti-oxidant properties of PABA
  physical appearance (precipitate): caused the phosphonate to precipitate giving a cloudy solution

## N-alkylbenzyldimethylammonium chloride and/or N-dialkylbenzylmethylammonium chloride [benzalkonium chloride]
[2]
  effect on reducing capacity of stannous chloride: neither improved nor diminished the reducing capacity of stannous chloride
[1]
  effect on PABA / its anti-oxidant properties: did not have a deteriorating effect on PABA
  physical appearance (precipitate): no precipitate was observed
[1]; [12]
  free pertechnetate: less than 1%
  reduced hydrolyzed technetium: less than 1%
[1]; listed as BAC
  effect on PABA / its anti-oxidant properties: does not interfere with the anti-oxidant properties of PABA
[3]; 50 μg BAC, control, SOY
  Viability check: date growth observed: 2/2
[3]; 50 μg BAC, control, THIO.
  Viability check: date growth observed: 2/1
[3]; 50 μg BAC, innoc., SOY
  Viability check: date growth observed: 2/2
[3]; 50 μg BAC, innoc., THIO.
  Viability check: date growth observed: 2/1
[3]; 100 μg BAC, control, SOY
  Viability check: date growth observed: 2/2
[3]; 100 μg BAC, control, THIO.
  Viability check: date growth observed: 2/1
[3]; 100 μg BAC, innoc., SOY
  Viability check: date growth observed: 2/6
[3]; 100 μg BAC, innoc., THIO.
  Viability check: date growth observed: 2/1
[3]; 250 μg BAC per vial and over
  effect in viability test: beneficial effect of the benzalkonium chloride was evident
[3]; 250 μg BAC, control, SOY
  Viability check: date growth observed: NEG.
[3]; 250 μg BAC, control, THIO.
  Viability check: date growth observed: NEG.
[3]; 250 μg BAC, innoc., SOY
  Viability check: date growth observed: NEG.
[3]; 250 μg BAC, innoc., THIO.
  Viability check: date growth observed: NEG.
[3]; 1000 μg BAC, control, SOY
  Viability check: date growth observed: NEG.
[3]; 1000 μg BAC, control, THIO.
  Viability check: date growth observed: NEG.
[3]; 1000 μg BAC, innoc., SOY
  Viability check: date growth observed: NEG.
[3]; 1000 μg BAC, innoc., THIO.
  Viability check: date growth observed: NEG.
[4]
  biodistribution of the radiopharmaceutical upon addition of BAC: not altered
[5]
  bacteriostasis: effective bacteriostasis
[6]
  effect on shelf life of unreconstituted products: does not diminish the shelf life of unreconstituted products
[7]
  haze on addition to the final solution: a slight haze appeared
[8]; 10 μg BAC per vial, control (not inoculated), SOY
  Sterility test (growth): NEG.
[8]; 10 μg BAC per vial, control (not inoculated), THIO.
  Sterility test (growth): NEG.
[8]; 10 μg BAC per vial, inoculated, SOY
  Sterility test (growth): POS.
[8]; 10 μg BAC per vial, inoculated, THIO.
  Sterility test (growth): POS.
[8]; 10 μg and 25 μg BAC per vial
  growth in both media: Growth was observed in both media
[8]; 25 μg BAC per vial, control (not inoculated), SOY
  Sterility test (growth): NEG.
[8]; 25 μg BAC per vial, control (not inoculated), THIO.
  Sterility test (growth): NEG.
[8]; 25 μg BAC per vial, inoculated, SOY
  Sterility test (growth): POS.
[8]; 25 μg BAC per vial, inoculated, THIO.
  Sterility test (growth): POS.
[8]; 50 μg BAC per vial, control (not inoculated), SOY
  Sterility test (growth): NEG.
[8]; 50 μg BAC per vial, control (not inoculated), THIO.
  Sterility test (growth): NEG.
[8]; 50 μg BAC per vial, inoculated, SOY
  Sterility test (growth): NEG.
[8]; 50 μg BAC per vial, inoculated, THIO.
  Sterility test (growth): NEG.
[8]; 100 μg BAC per vial, control (not inoculated), SOY
  Sterility test (growth): NEG.
[8]; 100 μg BAC per vial, control (not inoculated), THIO.
  Sterility test (growth): NEG.
[8]; 100 μg BAC per vial, inoculated, SOY
  Sterility test (growth): NEG.
[8]; 100 μg BAC per vial, inoculated, THIO.
  Sterility test (growth): NEG.
[8]; 250 μg BAC per vial, control (not inoculated), SOY
  Sterility test (growth): NEG.
[8]; 250 μg BAC per vial, control (not inoculated), THIO.
  Sterility test (growth): NEG.
[8]; 250 μg BAC per vial, inoculated, SOY
  Sterility test (growth): NEG.
[8]; 250 μg BAC per vial, inoculated, THIO.
  Sterility test (growth): NEG.
[8]; 1000 μg BAC per vial, control (not inoculated), SOY
  Sterility test (growth): NEG.
[8]; 1000 μg BAC per vial, control (not inoculated), THIO.
  Sterility test (growth): NEG.
[8]; 1000 μg BAC per vial, inoculated, SOY
  Sterility test (growth): NEG.
[8]; 1000 μg BAC per vial, inoculated, THIO.
  Sterility test (growth): NEG.
[8]; greater than 25 μg BAC per vial
  growth: no growth
[9]; 25 μg BAC and optionally 25 μg polymyxin B in 10 ml
  bacteriostasis: effective bacteriostasis
[10]
  effect on stability of the product: did not affect the stability of the product
[11]
  effect on stability of the product: did not affect the stability of the product

## polymyxin B
[9]; addition to BAC
  protection against Gram Negative bacteria: additional protection against Gram Negative bacteria
